Assay results: the supplement of paper PMC6045584
± gives the standard deviation of the averaged measurements.

How the values were obtained:
[1] = compound: COCC[n+]1c2c(n(Cc3cnccn3)c1C)C(=O)c1ccccc1C2=O [YM155]; experiment: surviving fraction relative to DMSO-only wells; higher = less growth inhibition; conditions: exposure time: 5 days
Procedure, shortened: (§1)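 Log-phase tumour cell lines, 250–500 cells per well in 384-well plates, received inhibitors at 0.5, 1, 5, 10, 50, 100, 500 and 1000 nM continuously for five days, starting 24 hours after seeding. Viability was quantified with CellTiter-Glo luminescence and normalised to the median of DMSO-only wells to give surviving fraction. Three screens were run per line, and a line stayed in only with replicate Pearson r >0.7 and median Z' >0.3.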

[2] = compound: C[C@]1(O)C[C@@H](c2nc(-c3ccc4ccc(-c5ccccc5)nc4c3)c3c(N)nccn32)C1 [OSI-906]; experiment: as above; conditions: exposure time: 5 days
Procedure, shortened: as §1

Row | Test System | surviving fraction ([1]; 0.5 nM) | surviving fraction ([1]; 1 nM) | surviving fraction ([1]; 5 nM) | surviving fraction ([1]; 10 nM) | surviving fraction ([1]; 50 nM) | surviving fraction ([1]; 100 nM) | surviving fraction ([1]; 500 nM) | surviving fraction ([1]; 1000 nM) | surviving fraction ([2]; 0.5 nM) | surviving fraction ([2]; 1 nM) | surviving fraction ([2]; 5 nM) | surviving fraction ([2]; 10 nM) | surviving fraction ([2]; 50 nM) | surviving fraction ([2]; 100 nM) | surviving fraction ([2]; 500 nM) | surviving fraction ([2]; 1000 nM)
1 | SUM159 BREAST | 0.994 ± 0.042 | 1.02 ± 0.032 | 0.536 ± 0.072 | 0.537 ± 0.057 | 0.069 ± 0.0098 | 0.0383 ± 0.0015 | 0.0217 ± 0.00058 | 0.0273 ± 0.00058 | 0.9647 ± 0.0076 | 0.948 ± 0.021 | 0.964 ± 0.021 | 0.944 ± 0.036 | 0.977 ± 0.013 | 0.95 ± 0.021 | 0.953 ± 0.012 | 0.927 ± 0.016
2 | MDAMB231 BREAST | 0.91 ± 0.0095 | 0.903 ± 0.024 | 0.112 ± 0.002 | 0.0683 ± 0.0035 | 0.0386 ± 0.0022 | 0.0352 ± 0.002 | 0.0302 ± 0.00043 | 0.0372 ± 0.0043 | 0.917 ± 0.034 | 0.9167 ± 0.0045 | 0.937 ± 0.021 | 0.918 ± 0.03 | 0.957 ± 0.031 | 0.947 ± 0.013 | 0.922 ± 0.014 | 0.908 ± 0.032
3 | HS578T BREAST | 1.03 ± 0.14 | 1.06 ± 0.19 | 0.993 ± 0.19 | 1.06 ± 0.082 | 0.739 ± 0.18 | 0.809 ± 0.066 | 0.274 ± 0.067 | 0.154 ± 0.027 | 0.846 ± 0.12 | 0.968 ± 0.16 | 0.865 ± 0.12 | 0.846 ± 0.049 | 1.09 ± 0.13 | 0.931 ± 0.19 | 1.07 ± 0.073 | 1.15 ± 0.18
4 | COLO320DM LARGE INTESTINE | 0.981 ± 0.051 | 1.01 ± 0.063 | 0.994 ± 0.087 | 1.03 ± 0.17 | 0.708 ± 0.059 | 0.528 ± 0.057 | 0.231 ± 0.013 | 0.201 ± 0.012 | 1.03 ± 0.099 | 1.09 ± 0.065 | 1.09 ± 0.023 | 1.01 ± 0.049 | 0.875 ± 0.04 | 0.818 ± 0.076 | 0.572 ± 0.048 | 0.528 ± 0.032
5 | OS25HAL BONE | 0.944 ± 0.046 | 0.987 ± 0.022 | 0.295 ± 0.029 | 0.158 ± 0.03 | 0.0603 ± 0.0068 | 0.0357 ± 0.0042 | 0.0193 ± 0.00058 | 0.0267 ± 0.0021 | 0.866 ± 0.066 | 0.892 ± 0.017 | 0.894 ± 0.025 | 0.871 ± 0.017 | 0.854 ± 0.039 | 0.762 ± 0.016 | 0.354 ± 0.015 | 0.256 ± 0.037
6 | HMLE3 BREAST | 0.974 ± 0.062 | 1.06 ± 0.15 | 0.425 ± 0.072 | 0.129 ± 0.02 | 0.0257 ± 0.00058 | 0.0227 ± 0.00058 | 0.018 ± 0.001 | 0.0213 ± 0.00058 | 0.808 ± 0.068 | 0.887 ± 0.071 | 0.931 ± 0.045 | 0.841 ± 0.0091 | 0.875 ± 0.047 | 0.901 ± 0.079 | 0.783 ± 0.035 | 0.724 ± 0.12
7 | SUM149.B1*.S BREAST | 0.847 ± 0.051 | 1.02 ± 0.068 | 0.903 ± 0.068 | 0.583 ± 0.058 | 0.0738 ± 0.0063 | 0.0278 ± 0.0019 | 0.0225 ± 0.00087 | 0.0277 ± 0.0011 | 0.935 ± 0.025 | 0.927 ± 0.032 | 0.92 ± 0.041 | 0.926 ± 0.025 | 0.974 ± 0.037 | 0.947 ± 0.004 | 0.943 ± 0.032 | 0.888 ± 0.057
8 | T47D BREAST | 0.959 ± 0.013 | 0.983 ± 0.027 | 0.917 ± 0.035 | 0.763 ± 0.0085 | 0.212 ± 0.01 | 0.131 ± 0.01 | 0.0481 ± 0.0042 | 0.0483 ± 0.0017 | 0.9222 ± 0.0086 | 0.933 ± 0.038 | 0.9888 ± 0.0092 | 0.917 ± 0.02 | 0.982 ± 0.058 | 0.954 ± 0.028 | 0.868 ± 0.018 | 0.85 ± 0.018
9 | HOSMNG BONE | 0.934 ± 0.09 | 0.929 ± 0.1 | 0.889 ± 0.096 | 0.87 ± 0.11 | 0.198 ± 0.0064 | 0.132 ± 0.017 | 0.0837 ± 0.04 | 0.061 ± 0.0036 | 0.94 ± 0.099 | 0.941 ± 0.076 | 0.948 ± 0.06 | 0.98 ± 0.062 | 0.854 ± 0.086 | 0.993 ± 0.1 | 0.957 ± 0.056 | 1 ± 0.032
10 | MDAMB134 BREAST | 0.783 ± 0.027 | 0.855 ± 0.052 | 0.759 ± 0.037 | 0.5665 ± 0.005 | 0.775 ± 0.051 | 0.634 ± 0.13 | 0.567 ± 0.0014 | 0.435 ± 0.064 | 0.667 ± 0.12 | 0.797 ± 0.014 | 0.679 ± 0.039 | 0.627 ± 0.037 | 0.732 ± 0.016 | 0.72 ± 0.0071 | 0.587 ± 0.016 | 0.616 ± 0.088
11 | OSHN BONE | 1.02 ± 0.021 | 1.05 ± 0.019 | 0.265 ± 0.013 | 0.097 ± 0.008 | 0.0293 ± 0.0011 | 0.025 ± 0.001 | 0.0203 ± 0.00058 | 0.027 ± 0.0017 | 0.887 ± 0.024 | 0.912 ± 0.026 | 0.902 ± 0.028 | 0.884 ± 0.046 | 0.945 ± 0.0072 | 0.927 ± 0.013 | 0.758 ± 0.012 | 0.732 ± 0.027
12 | LM7 BONE | 0.943 ± 0.029 | 0.889 ± 0.053 | 0.433 ± 0.018 | 0.201 ± 0.019 | 0.039 ± 0.0056 | 0.0237 ± 0.00058 | 0.0197 ± 0.00058 | 0.025 ± 0.0017 | 0.743 ± 0.037 | 0.717 ± 0.062 | 0.801 ± 0.074 | 0.747 ± 0.041 | 0.867 ± 0.011 | 0.771 ± 0.048 | 0.48 ± 0.023 | 0.435 ± 0.025
13 | SG28 HEADNECK | 1.07 ± 0.083 | 1.17 ± 0.066 | 0.882 ± 0.025 | 0.631 ± 0.05 | 0.105 ± 0.005 | 0.058 ± 0.013 | 0.0285 ± 0.00071 | 0.033 ± 0.0014 | 0.829 ± 0.16 | 0.78 ± 0.098 | 0.769 ± 0.16 | 0.792 ± 0.02 | 0.88 ± 0.06 | 0.867 ± 0.089 | 0.692 ± 0.021 | 0.547 ± 0.034
14 | MG63 BONE | 0.978 ± 0.036 | 1.04 ± 0.057 | 0.783 ± 0.048 | 0.659 ± 0.026 | 0.0477 ± 0.0021 | 0.0237 ± 0.0015 | 0.021 ± 0.001 | 0.027 ± 0.0017 | 0.9333 ± 0.0045 | 0.919 ± 0.025 | 0.989 ± 0.033 | 0.963 ± 0.012 | 0.971 ± 0.03 | 0.943 ± 0.018 | 0.896 ± 0.017 | 0.9223 ± 0.0068
15 | HT1080 SOFT TISSUE | 1.03 ± 0.021 | 0.954 ± 0.035 | 0.433 ± 0.0064 | 0.237 ± 0.017 | 0.063 ± 0.0027 | 0.0373 ± 0.0021 | 0.0277 ± 0.00058 | 0.0297 ± 0.00058 | 1 ± 0.042 | 1.02 ± 0.023 | 1.02 ± 0.021 | 1 ± 0.017 | 0.979 ± 0.039 | 0.921 ± 0.027 | 0.899 ± 0.03 | 0.869 ± 0.057
16 | HMT3552 BREAST | 0.983 ± 0.045 | 1.015 ± 0.009 | 1.06 ± 0.015 | 1.05 ± 0.056 | 0.17 ± 0.027 | 0.0797 ± 0.0055 | 0.0473 ± 0.0035 | 0.0537 ± 0.00058 | 0.916 ± 0.058 | 0.942 ± 0.017 | 0.988 ± 0.057 | 0.937 ± 0.064 | 1.05 ± 0.05 | 0.954 ± 0.023 | 0.828 ± 0.073 | 0.748 ± 0.035
17 | 93VU HEADNECK | 0.961 ± 0.099 | 0.982 ± 0.081 | 1.06 ± 0.061 | 1.045 ± 0.0081 | 0.839 ± 0.034 | 0.815 ± 0.06 | 0.193 ± 0.011 | 0.123 ± 0.027 | 0.821 ± 0.057 | 0.793 ± 0.053 | 0.836 ± 0.041 | 0.809 ± 0.13 | 0.974 ± 0.069 | 0.848 ± 0.014 | 0.711 ± 0.021 | 0.724 ± 0.23
18 | S68 BREAST | 0.884 ± 0.076 | 1.1 ± 0.45 | 0.674 ± 0.092 | 0.586 ± 0.038 | 0.143 ± 0.016 | 0.0627 ± 0.0061 | 0.0267 ± 0.00058 | 0.0277 ± 0.0015 | 0.611 ± 0.24 | 0.727 ± 0.17 | 0.797 ± 0.27 | 0.721 ± 0.37 | 1.19 ± 0.28 | 1.06 ± 0.21 | 0.828 ± 0.19 | 0.756 ± 0.05
19 | KPD BONE | 0.966 ± 0.037 | 0.995 ± 0.068 | 0.519 ± 0.033 | 0.266 ± 0.046 | 0.0473 ± 0.0081 | 0.0347 ± 0.004 | 0.0237 ± 0.0025 | 0.0257 ± 0.0021 | 0.958 ± 0.037 | 0.978 ± 0.051 | 0.9457 ± 0.0072 | 0.952 ± 0.097 | 0.796 ± 0.018 | 0.557 ± 0.021 | 0.112 ± 0.0049 | 0.081 ± 0.019
20 | SAOS2 BONE | 1.16 ± 0.021 | 1.1 ± 0.097 | 0.39 ± 0.035 | 0.237 ± 0.0095 | 0.053 ± 0.0069 | 0.0327 ± 0.006 | 0.0223 ± 0.00058 | 0.0293 ± 0.00058 | 0.82 ± 0.027 | 0.858 ± 0.013 | 0.804 ± 0.085 | 0.838 ± 0.045 | 1.06 ± 0.018 | 0.877 ± 0.066 | 0.594 ± 0.016 | 0.522 ± 0.057
